For the first assay, the system named is HeLa S3. As to the kind of experiment: Cytotoxicity against human HeLaS3 cells assessed as cell growth incubated for 48 hrs by MTT assay. Particulars: HeLa S3, 48 h. Type of assay: functional, cell-based. (Tetrazolium dyes change colour on reduction, which living cells bring about.)
With `CCCC/C=C(\C)c1c(C)cc(C)c[n+]1CCCC`, the half-inhibitory concentration (IC50) (commonly the concentration that gives 50% inhibition) worked out at 720 nM.

In the case of `CCCC/C=C(\C)c1c(C)cc(C)c2[n+]1CCC=C2`, the half-inhibitory concentration (IC50) amounted to 680 nM.

Regarding `CCCCCCc1c(C)cc(C)c2[n+]1CC(C)C=C2` (stereo not drawn), the IC50 amounted to 470 nM.

Turning to `CCCC/C=C(\C)c1c(C)cc(C)c2[n+]1CC(C)CC2` (stereo not drawn), the IC50 was determined as 360 nM.

As to `CCCCCCCCCC/C=C/c1c(C)cc(C)c2[n+]1CC(C)C=C2` (stereo not drawn), the IC50 is 52 nM.

On to `CCCC/C=C(\C)c1c(C)cc(C)c2[n+]1CC(C)C=C2` (stereo not drawn), for which the IC50 was 640 nM.

For `CCCCCCCC/C=C/c1c(C)cc(C)c2[n+]1CC(C)C=C2` (stereo not drawn), the IC50 came out at 51 nM.

Consider `CCCCCC/C=C/c1c(C)cc(C)c2[n+]1CC(C)C=C2` (stereo not drawn), for which the concentration for half-maximal inhibition (IC50) was found to be 170 nM.

As for `CCCC/C=C/c1c(C)cc(C)c2[n+]1CC(C)C=C2` (stereo not drawn), the half-maximal inhibitory concentration (IC50) stood at 370 nM.

With `CCCCCCCCCCCC/C=C/c1c(C)cc(C)c2[n+]1CC(C)C=C2` (stereo not drawn), the IC50 was determined as 38 nM.

Consider `CNC(=O)CCCCCc1c(C)cc(C)c2[n+]1CC(C)C=C2` (stereo not drawn), for which the concentration for half-maximal inhibition (IC50) is over 30000 nM.

Regarding `CCCC/C=C(\C)c1nc(/C=C\C(C)C)c(C)cc1C`, the IC50 is over 30000 nM.

For `CCCC/C=C/c1c(C)cc(C)c2[n+]1CC(C)CC2` (stereo not drawn), the IC50 was 580 nM.

With `CC/C=C/c1c(C)cc(C)c2[n+]1CC(C)C=C2` (stereo not drawn), the IC50 worked out at 2000 nM.

In the case of `CCCCCCCCCCCCCC/C=C/c1c(C)cc(C)c2[n+]1CC(C)C=C2` (stereo not drawn), the IC50 is 58 nM.

The next assay deals with HEK293. As to the kind of experiment: Cytotoxicity against HEK293 cells assessed as cell growth incubated for 48 hrs by MTT assay. Type of assay: cell-based. Particulars: Homo sapiens, HEK293, 48 h.
Regarding `CCCC/C=C(\C)c1c(C)cc(C)c2[n+]1CC(C)C=C2` (stereo not drawn), the IC50 turned out to be 1700 nM.

`CNC(=O)CCCCCc1c(C)cc(C)c2[n+]1CC(C)C=C2` (stereo not drawn): the IC50 was over 30000 nM.

Another assay has as its system HeLa S3. The assay is described as follows: Cytotoxicity against human HeLaS3 cells assessed as reduction in cell viability.
Conditions: not given
Type of assay: functional, cell-based.
Turning to `C1=Cc2cccc[n+]2CC1`, the IC50 was over 30000 nM.

(Values after ChEMBL document CHEMBL4627253, “Relationship among structure, cytotoxicity, and Michael acceptor reactivity of quinocidin” (Bioorg Med Chem, 2020).)
